Laboratory results from patent US7713994B2 (Wyeth LLC, priority 2005, dated 2010).

What follows are compounds tested against T1, cyclin D1/cdk 4 enzyme (Homo sapiens, UniProt P11802) (assay: CDK4 ELISA kinase assay (phospho-Rb ser 795 detection)). Conditions: In Vitro Enzyme Assay, cyclin D1/cdk 4, read-out: CDK4 IC50.
T1 construct: made in house; host or cells: Sf9 insect cells, recombinant baculovirus
Format: biochemical
Summary of the method: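 Partially purified Sf9-expressed cyclin D1/CDK4, cyclin E/CDK2 or cyclin B/CDK1 phosphorylated plate-bound GST-Rb C-terminal fragment with 200 μM ATP at 30° C for 1 h.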

T1 sequence (P11802 whole entry, species assumed): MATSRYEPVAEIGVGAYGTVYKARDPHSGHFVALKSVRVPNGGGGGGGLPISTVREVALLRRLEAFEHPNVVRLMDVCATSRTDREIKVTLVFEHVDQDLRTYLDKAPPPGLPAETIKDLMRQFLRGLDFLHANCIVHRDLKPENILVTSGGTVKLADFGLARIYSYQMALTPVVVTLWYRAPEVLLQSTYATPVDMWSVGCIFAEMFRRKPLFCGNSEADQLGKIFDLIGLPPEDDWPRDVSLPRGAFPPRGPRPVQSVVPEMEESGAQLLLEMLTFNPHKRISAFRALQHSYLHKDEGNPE
T1 sequence (P24385 whole entry partner, species assumed): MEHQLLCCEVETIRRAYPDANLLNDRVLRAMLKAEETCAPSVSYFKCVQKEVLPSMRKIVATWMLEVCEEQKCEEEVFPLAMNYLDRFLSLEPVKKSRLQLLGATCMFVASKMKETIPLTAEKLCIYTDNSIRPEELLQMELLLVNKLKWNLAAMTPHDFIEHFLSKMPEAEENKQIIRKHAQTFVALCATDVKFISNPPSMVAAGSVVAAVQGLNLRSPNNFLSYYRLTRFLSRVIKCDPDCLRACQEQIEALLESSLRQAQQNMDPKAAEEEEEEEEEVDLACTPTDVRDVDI

Q: For `NS(=O)(=O)c1ccc(CNC=C2C(=O)NC(=O)c3ccc(-c4ccc(-c5ccccc5)cc4)cc32)cc1` [Example 757, 4-{[(6-Biphenyl-4-yl-1,3-dioxo-2,3-dihydro-1H-isoquinolin-4-ylidenemethyl)-amino]-methyl}-benzenesulfonamide], which IC50 is on record?
A: 31.1 µM

Q: How did the IC50 turn out when `NS(=O)(=O)c1ccc(CNC=C2C(=O)NC(=O)c3ccc(-c4cccc(-c5ccccc5)c4)cc32)cc1` [Example 758, 4-{[(6-Biphenyl-3-yl-1,3-dioxo-2,3-dihydro-1H-isoquinolin-4-ylidenemethyl)-amino]-methyl}-benzenesulfonamide] was run?
A: 25.7 µM

Q: With `NS(=O)(=O)c1ccc(CNC=C2C(=O)NC(=O)c3ccc(-c4ccc(C=CC(=O)O)cc4)cc32)cc1` [Example 759, 3-(4-{1,3-Dioxo-4-[(4-sulfamoyl-benzylamino)-methylene]-1,2,3,4-tetrahydro-isoquinolin-6-yl}-phenyl)-acrylic acid] as the compound, how does the IC50 read?
A: 1.7 µM

Q: `NS(=O)(=O)c1ccc(CNC=C2C(=O)NC(=O)c3ccc(-c4cccc(C=CC(=O)O)c4)cc32)cc1` [Example 760, 3-(3-{1,3-Dioxo-4-[(4-sulfamoyl-benzylamino)-methylene]-1,2,3,4-tetrahydro-isoquinolin-6-yl}-phenyl)-acrylic acid] was tested. Which IC50 did it give?
A: 2.2 µM

Q: With `CC(C)c1ccc(-c2ccc3c(c2)C(=CNCc2ccc(S(N)(=O)=O)cc2)C(=O)NC3=O)cc1` [Example 761, 4-({[6-(4-Isopropyl-phenyl)-1,3-dioxo-2,3-dihydro-1H-isoquinolin-4-ylidenemethyl]-amino}-methyl)-benzenesulfonamide] as the compound, how does the IC50 read?
A: 18.4 µM

Q: How did the IC50 turn out when `CC(C)c1cccc(-c2ccc3c(c2)C(=CNCc2ccc(S(N)(=O)=O)cc2)C(=O)NC3=O)c1` [Example 762, 4-({[6-(3-Isopropyl-phenyl)-1,3-dioxo-2,3-dihydro-1H-isoquinolin-4-ylidenemethyl]-amino}-methyl)-benzenesulfonamide] was run?
A: 33.6 µM

Q: `CSc1ccc(-c2ccc3c(c2)C(=CNCc2ccc(S(N)(=O)=O)cc2)C(=O)NC3=O)cc1` [Example 763, 4-({[6-(4-Methylsulfanyl-phenyl)-1,3-dioxo-2,3-dihydro-1H-isoquinolin-4-ylidenemethyl]-amino}-methyl)-benzenesulfonamide] was tested. Which IC50 did it give?
A: 49.6 µM

Q: How did the IC50 turn out when `O=C1NC(=O)c2ccc(-c3ccccc3C(F)(F)F)cc2C1=CNCc1ccc(O)c(O)c1` [Example 774, 4-[(3,4-Dihydroxy-benzylamino)-methylene]-6-(2-trifluoromethyl-phenyl)-4H-isoquinoline-1,3-dione] was run?
A: 1.4 µM

Q: Which IC50 does the source give for `CC(=O)c1ccccc1-c1ccc2c(c1)C(=CNCc1ccc(O)c(O)c1)C(=O)NC2=O` [Example 777, 6-(2-Acetyl-phenyl)-4-[(3,4-dihydroxy-benzylamino)-methylene]-4H-isoquinoline-1,3-dione] here?
A: 3.78 µM

Q: Which IC50 does the source give for `Cc1ccccc1-c1ccc2c(c1)C(=CNCc1ccc(O)c(O)c1)C(=O)NC2=O` [Example 783, 4-[(3,4-Dihydroxy-benzylamino)-methylene]-6-o-tolyl-4H-isoquinoline-1,3-dione] here?
A: 1.23 µM

Q: How did the IC50 turn out when `O=C1NC(=O)c2ccc(-c3ccc(-c4ccccc4)cc3)cc2C1=CNCc1ccc(O)c(O)c1` [Example 786, 6-Biphenyl-4-yl-4-[(3,4-dihydroxy-benzylamino)-methylene]-4H-isoquinoline-1,3-dione] was run?
A: 9.74 µM

Q: How did the IC50 turn out when `O=C1NC(=O)c2ccc(-c3cccc(-c4ccccc4)c3)cc2C1=CNCc1ccc(O)c(O)c1` [Example 787, 6-Biphenyl-3-yl-4-[(3,4-dihydroxy-benzylamino)-methylene]-4H-isoquinoline-1,3-dione] was run?
A: 2.27 µM

Q: For `CC(C)c1ccc(-c2ccc3c(c2)C(=CNCc2ccc(O)c(O)c2)C(=O)NC3=O)cc1` [Example 790, 4-[(3,4-Dihydroxy-benzylamino)-methylene]-6-(4-isopropyl-phenyl)-4H-isoquinoline-1,3-dione], which IC50 is on record?
A: 1.45 µM

Q: How did the IC50 turn out when `CC(C)c1cccc(-c2ccc3c(c2)C(=CNCc2ccc(O)c(O)c2)C(=O)NC3=O)c1` [Example 791, 4-[(3,4-Dihydroxy-benzylamino)-methylene]-6-(3-isopropyl-phenyl)-4H-isoquinoline-1,3-dione] was run?
A: 4.99 µM

Q: With `CSc1ccccc1-c1ccc2c(c1)C(=CNCc1ccc(O)c(O)c1)C(=O)NC2=O` [Example 793, 4-[(3,4-Dihydroxy-benzylamino)-methylene]-6-(2-methylsulfanyl-phenyl)-4H-isoquinoline-1,3-dione] as the compound, how does the IC50 read?
A: 1.96 µM

Q: With `CCN(CC)CCOC=Cc1ccc2c(c1)C(=CNc1ccc(N3CCN(C)CC3)cc1)C(=O)NC2=O` [Example 794, 6-[2-(2-Diethylamino-ethoxy)-vinyl]-4-{[4-(4-methyl-piperazin-1-yl)-phenylamino]-methylene}-4H-isoquinoline-1,3-dione] as the compound, how does the IC50 read?
A: 41.7 µM

Q: `CN1CCN(c2ccc(NC=C3C(=O)NC(=O)c4ccc(C=CCCC(=O)O)cc43)cc2)CC1` [Example 795, 5-(4-{[4-(4-Methyl-piperazin-1-yl)-phenylamino]-methylene}-1,3-dioxo-1,2,3,4-tetrahydro-isoquinolin-6-yl)-pent-4-enoic acid] was tested. Which IC50 did it give?
A: 24.2 µM

Q: With `CN1CCN(c2ccc(NC=C3C(=O)NC(=O)c4ccc(C=CCCO)cc43)cc2)CC1` [Example 796, 6-(4-Hydroxy-but-1-enyl)-4-{[4-(4-methyl-piperazin-1-yl)-phenylamino]-methylene}-4H-isoquinoline-1,3-dione] as the compound, how does the IC50 read?
A: 2.27 µM

Q: How did the IC50 turn out when `CN1CCN(c2ccc(NC=C3C(=O)NC(=O)c4ccc(C=CCCCCO)cc43)cc2)CC1` [Example 798, 6-(6-Hydroxy-hex-1-enyl)-4-{[4-(4-methyl-piperazin-1-yl)-phenylamino]-methylene}-4H-isoquinoline-1,3-dione] was run?
A: 2.5 µM

Q: How did the IC50 turn out when `CN1CCN(c2ccc(NC=C3C(=O)NC(=O)c4ccc(C=CCOCCO)cc43)cc2)CC1` [Example 799, 6-[3-(2-Hydroxy-ethoxy)-propenyl]-4-{[4-(4-methyl-piperazin-1-yl)-phenylamino]-methylene}-4H-isoquinoline-1,3-dione] was run?
A: 6.37 µM

Q: How did the IC50 turn out when `CN1CCN(c2ccc(NC=C3C(=O)NC(=O)c4ccc(C=CCN5CC(=O)NC5=O)cc43)cc2)CC1` [Example 800, 6-[3-(2,4-Dioxo-imidazolidin-1-yl)-propenyl]-4-{[4-(4-methyl-piperazin-1-yl)-phenylamino]-methylene}-4H-isoquinoline-1,3-dione] was run?
A: 5.04 µM

Q: For `CN1CCN(c2ccc(NC=C3C(=O)NC(=O)c4ccc(C=CCc5ccccc5O)cc43)cc2)CC1` [Example 801, 6-[3-(2-Hydroxy-phenyl)-propenyl]-4-{[4-(4-methyl-piperazin-1-yl)-phenylamino]-methylene}-4H-isoquinoline-1,3-dione], which IC50 is on record?
A: 15.5 µM

Q: For `CC(C#N)=C(C)c1ccc2c(c1)C(=CNc1ccc(N3CCN(C)CC3)cc1)C(=O)NC2=O` [Example 802, 2-Methyl-3-(4-{[4-(4-methyl-piperazin-1-yl)-phenylamino]-methylene}-1,3-dioxo-1,2,3,4-tetrahydro-isoquinolin-6-yl)-but-2-enenitrile], which IC50 is on record?
A: 15 µM

Q: How did the IC50 turn out when `CN1CCN(c2ccc(NC=C3C(=O)NC(=O)c4ccc(C=Cc5ccc(CC#N)cc5)cc43)cc2)CC1` [Example 803, {4-[2-(4-{[4-(4-Methyl-piperazin-1-yl)-phenylamino]-methylene}-1,3-dioxo-1,2,3,4-tetrahydro-isoquinolin-6-yl)-vinyl]-phenyl}-acetonitrile] was run?
A: 4.97 µM
